Columns and labels:
hMC5R [1] = molecular target: T1, hMC5R (Homo sapiens, UniProt P33032); assay: Adenylate cyclase (cAMP) assay in HEK293 cells expressing hMC5R
hMC1R [2] = molecular target: T2, hMC1R (Homo sapiens, UniProt Q01726); assay: Competitive binding assay with [125I]-NDP-α-MSH on whole HEK293 cells expressing hMC1R
Method: (§1) The pharmacological characterization for the binding efficiencies greater than 70% are defined as competitive binding, binding efficiency less than 70% are non-competitive binding.
(§2) Receptor Binding Assay. Competition binding experiments were carried out using both of cloned cell line and melanoma cells (A375, ATCC). The whole HEK293 cells stably expressing human MC1, MC3, MC4, and MC5 receptors as described before. […] The assay medium was subsequently removed, the cells were washed once with basic medium, and then lysed by the addition of 100 μL of 0.1M NaOH and 100 μL of 1% Triton X-100.

hMC3R [3] = molecular target: T3, hMC3R (Homo sapiens, UniProt P41968); assay: Competitive binding assay with [125I]-NDP-α-MSH on whole HEK293 cells expressing hMC3R
Method: as §1, §2

hMC4R [4] = molecular target: T4, hMC4R (Homo sapiens, UniProt P32245); assay: Adenylate cyclase (cAMP) assay in HEK293 cells expressing hMC4R
hMC1R [5] = molecular target: T2, hMC1R; assay: Adenylate cyclase (cAMP) assay in HEK293 cells expressing hMC1R
hMC5R [6] = molecular target: T1, hMC5R; assay: Competitive binding assay with [125I]-NDP-α-MSH on whole HEK293 cells expressing hMC5R
Method: as §1, §2

hMC3R [7] = molecular target: T3, hMC3R; assay: Adenylate cyclase (cAMP) assay in HEK293 cells expressing hMC3R
hMC4R [8] = molecular target: T4, hMC4R; assay: Competitive binding assay with [125I]-NDP-α-MSH on whole HEK293 cells expressing hMC4R
Method: as §1, §2

T4 sequence (P32245 whole entry): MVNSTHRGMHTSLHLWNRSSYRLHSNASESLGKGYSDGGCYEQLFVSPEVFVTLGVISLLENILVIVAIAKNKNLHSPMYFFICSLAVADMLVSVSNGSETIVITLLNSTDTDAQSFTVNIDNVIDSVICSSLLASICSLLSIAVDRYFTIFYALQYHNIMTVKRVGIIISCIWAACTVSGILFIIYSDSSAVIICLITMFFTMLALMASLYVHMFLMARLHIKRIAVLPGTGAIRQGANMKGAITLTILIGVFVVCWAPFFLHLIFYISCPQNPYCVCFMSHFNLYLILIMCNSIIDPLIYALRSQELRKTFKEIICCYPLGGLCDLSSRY
T3 sequence (P41968 whole entry): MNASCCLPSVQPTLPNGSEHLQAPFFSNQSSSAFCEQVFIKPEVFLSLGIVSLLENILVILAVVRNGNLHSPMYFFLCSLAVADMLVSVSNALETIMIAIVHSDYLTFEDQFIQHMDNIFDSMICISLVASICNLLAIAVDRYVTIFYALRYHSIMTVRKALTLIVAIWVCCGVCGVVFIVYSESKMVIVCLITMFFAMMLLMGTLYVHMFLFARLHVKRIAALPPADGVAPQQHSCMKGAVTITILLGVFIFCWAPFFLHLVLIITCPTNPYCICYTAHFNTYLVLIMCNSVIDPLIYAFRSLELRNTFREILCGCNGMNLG
T2 sequence (Q01726 whole entry): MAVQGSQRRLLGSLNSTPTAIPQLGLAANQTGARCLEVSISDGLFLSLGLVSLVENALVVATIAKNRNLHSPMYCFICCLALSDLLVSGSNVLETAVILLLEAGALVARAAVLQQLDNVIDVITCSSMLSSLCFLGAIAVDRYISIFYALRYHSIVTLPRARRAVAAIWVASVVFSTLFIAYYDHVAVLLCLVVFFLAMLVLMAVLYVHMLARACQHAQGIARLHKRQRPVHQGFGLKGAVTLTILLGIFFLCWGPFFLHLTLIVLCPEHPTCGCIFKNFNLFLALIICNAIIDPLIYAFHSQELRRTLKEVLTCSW
T1 sequence (P33032 whole entry): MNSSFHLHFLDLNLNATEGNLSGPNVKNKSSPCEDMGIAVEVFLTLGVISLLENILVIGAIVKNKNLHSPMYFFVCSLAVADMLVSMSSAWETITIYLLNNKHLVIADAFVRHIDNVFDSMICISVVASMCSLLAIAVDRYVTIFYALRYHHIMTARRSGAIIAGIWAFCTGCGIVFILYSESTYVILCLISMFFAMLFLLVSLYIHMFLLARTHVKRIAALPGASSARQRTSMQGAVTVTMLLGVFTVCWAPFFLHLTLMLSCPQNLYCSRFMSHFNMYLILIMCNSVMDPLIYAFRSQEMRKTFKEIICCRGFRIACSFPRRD

| Substance | functional (cAMP) activity at hMC5R (in words) (hMC5R [1]) | binding affinity at hMC1R (in words) (hMC1R [2]) | binding affinity at hMC3R (in words) (hMC3R [3]) | functional (cAMP) activity at hMC4R (in words) (hMC4R [4]) | functional (cAMP) activity at hMC1R (in words) (hMC1R [5]) | binding affinity at hMC5R (in words) (hMC5R [6]) | functional (cAMP) activity at hMC3R (in words) (hMC3R [7]) | binding affinity at hMC4R (in words) (hMC4R [8]) |
| --- | --- | --- | --- | --- | --- | --- | --- | --- |
| Ac-Nle-c[Asp-(NMe)His-nal-Arg-(NMe)Trp-(NMe)Lys]-NH2 [Peptide 19] | no activities | good binding | good binding | no activities | no activities | good binding | no activities | good binding |
| Ac-Nle-c[Asp-(NMe)His-nal-(NMe)Arg-(NMe)Trp-Lys]-NH2 [Peptide 24] | selective partial agonist activity | – | – | – | selective partial agonist activity | – | – | – |
| Ac-Nle-c[Asp-His-nal-Arg-(NMe)Trp-Lys]-NH2 [Peptide 3] | selective agonist | – | – | – | greater loss of functional activity | – | – | – |
| Ac-Nle-c[Asp-(NMe)His-(NMe)nal-Arg-Trp-Lys]-NH2 [Peptide 16] | universal antagonist | – | – | universal antagonist | universal antagonist | – | universal antagonist | – |
| Ac-Nle-c[Asp-(NMe)His-(NMe)nal-Arg-Trp-Lys]-NH2 [Peptide 5] | – | – | – | – | – | – | – | drastical loss of binding affinity |
| Ac-Nle-c[Asp-His-(NMe)nal-Arg-(NMe)Trp-(NMe)Lys]-NH2 [Peptide 18] | – | – | – | partial agonist | full agonist activity | – | – | – |

Results, then the substance that gave them:

| functional (cAMP) activity at hMC5R (in words) (hMC5R [1]) | binding affinity at hMC1R (in words) (hMC1R [2]) | binding affinity at hMC3R (in words) (hMC3R [3]) | functional (cAMP) activity at hMC4R (in words) (hMC4R [4]) | functional (cAMP) activity at hMC1R (in words) (hMC1R [5]) | binding affinity at hMC5R (in words) (hMC5R [6]) | functional (cAMP) activity at hMC3R (in words) (hMC3R [7]) | binding affinity at hMC4R (in words) (hMC4R [8]) | Substance |
| --- | --- | --- | --- | --- | --- | --- | --- | --- |
| almost a universal antagonist activity | – | – | almost a universal antagonist activity | almost a universal antagonist activity | – | very weak activity | – | Ac-Nle-c[Asp-His-(NMe)nal-(NMe)Arg-Trp-(NMe)Lys]-NH2 [Peptide 20] |
| very selective antagonist | drastically lost | drastically lost | – | – | – | – | drastically lost | Ac-Nle-c[Asp-His-(NMe)nal-Arg-Trp-(NMe)Lys]-NH2 [Peptide 9] |
| – | – | – | – | selective agonist activities | – | – | – | Ac-Nle-c[Asp-(NMe)His-nal-Arg-Trp-(NMe)Lys]-NH2 [Peptide 10] |
| all functional activities are abolished | – | – | all functional activities are abolished | all functional activities are abolished | – | all functional activities are abolished | – | Ac-Nle-c[Asp-(NMe)His-(NMe)nal-Arg-Trp-(NMe)Lys]-NH2 [Peptide 22] |
| retains agonist activity | – | – | – | – | – | – | – | Ac-Nle-c[Asp-(NMe)His-nal-(NMe)Arg-Trp-(NMe)Lys]-NH2 [Peptide 21] |
| – | – | – | partial agonistic activities | partial agonistic activities | – | partial agonistic activities | – | Ac-Nle-c[Asp-His-(NMe)nal-(NMe)Arg-Trp-Lys]-NH2 [Peptide 14] |
| moderate selective antagonist | – | – | – | – | – | – | – | Ac-Nle-c[Asp-(NMe)His-nal-Arg-(NMe)Trp-Lys]-NH2 [Peptide 13] |
| all functional activities are abolished | – | – | all functional activities are abolished | all functional activities are abolished | – | all functional activities are abolished | – | Ac-Nle-c[Asp-His-(NMe)nal-(NMe)Arg-(NMe)Trp-Lys]-NH2 [Peptide 23] |
| – | – | increases | – | potent agonist | – | potent antagonist | decreases by 3 orders of magnitude | Ac-Nle-c[Asp-His-nal-(NMe)Arg-Trp-(NMe)Lys]-NH2 [Peptide 8] |
